Activity calls are given as the source filed them. The rule behind the calls is not given here.
Test system: CCRIS mutagenicity, Ames/micronucleus/aberration tests
Assay: CCRIS mutagenicity studies
[1] = Test System: AMES SALMONELLA TYPHIMURIUM, Strain/Indicator: TA98, Metabolic Activation: NONE, Method: PREINCUBATION
[2] = Test System: AMES SALMONELLA TYPHIMURIUM, Strain/Indicator: TA98, Metabolic Activation: RAT, LIVER, S-9, AROCLOR 1254, Method: PREINCUBATION
[3] = Test System: AMES SALMONELLA TYPHIMURIUM, Strain/Indicator: TA100, Metabolic Activation: NONE, Method: PREINCUBATION
[4] = Test System: AMES SALMONELLA TYPHIMURIUM, Strain/Indicator: TA100, Metabolic Activation: RAT, LIVER, S-9, AROCLOR 1254, Method: STANDARD PLATE
[5] = Test System: AMES SALMONELLA TYPHIMURIUM, Strain/Indicator: TA100, Metabolic Activation: NONE, Method: STANDARD PLATE
[6] = Test System: AMES SALMONELLA TYPHIMURIUM, Strain/Indicator: TA98, Metabolic Activation: RAT, LIVER, S-9, AROCLOR 1254, Method: STANDARD PLATE

Q: What does the source list for Nc1c(Br)cc(Br)c2c1C(=O)c1ccccc1C2=O?
A: mutagenic call (End Point: IN VITRO CHROMOSOMAL ABERRATIONS, Test System: CHO-LB CELLS, Metabolic Activation: NONE): inactive; negative; mutagenic call (End Point: IN VITRO CHROMOSOMAL ABERRATIONS, Test System: CHO-LB CELLS, Metabolic Activation: RAT, LIVER, S-9, AROCLOR 1254): inactive; negative; mutagenic call (Test System: AMES SALMONELLA TYPHIMURIUM, Strain/Indicator: TA98, Metabolic Activation: HAMSTER, LIVER, S-9, AROCLOR 1254 (10%), Method: PREINCUBATION): inactive; negative; mutagenic call (Test System: AMES SALMONELLA TYPHIMURIUM, Strain/Indicator: TA98, Metabolic Activation: HAMSTER, LIVER, S-9, AROCLOR 1254, Method: PREINCUBATION): inactive; negative; mutagenic call [1]: active; positive; mutagenic call (Test System: AMES SALMONELLA TYPHIMURIUM, Strain/Indicator: TA98, Metabolic Activation: RAT, LIVER, S-9, AROCLOR 1254 (10%), Method: PREINCUBATION): inactive; negative; mutagenic call [2]: inactive; negative; mutagenic call (Test System: AMES SALMONELLA TYPHIMURIUM, Strain/Indicator: TA100, Metabolic Activation: HAMSTER, LIVER, S-9, AROCLOR 1254, Method: PREINCUBATION): inactive; negative; mutagenic call [3]: inactive; negative; mutagenic call (Test System: AMES SALMONELLA TYPHIMURIUM, Strain/Indicator: TA100, Metabolic Activation: RAT, LIVER, S-9, AROCLOR 1254, Method: PREINCUBATION): inactive; negative; mutagenic call (Test System: AMES SALMONELLA TYPHIMURIUM, Strain/Indicator: TA1535, Metabolic Activation: HAMSTER, LIVER, S-9, AROCLOR 1254 (10%), Method: PREINCUBATION): inactive; negative; mutagenic call (Test System: AMES SALMONELLA TYPHIMURIUM, Strain/Indicator: TA1535, Metabolic Activation: HAMSTER, LIVER, S-9, AROCLOR 1254, Method: PREINCUBATION): inactive; negative; mutagenic call (Test System: AMES SALMONELLA TYPHIMURIUM, Strain/Indicator: TA1535, Metabolic Activation: NONE, Method: PREINCUBATION): inactive; negative; mutagenic call (Test System: AMES SALMONELLA TYPHIMURIUM, Strain/Indicator: TA1535, Metabolic Activation: RAT, LIVER, S-9, AROCLOR 1254 (10%), Method: PREINCUBATION): inactive; negative; mutagenic call (Test System: AMES SALMONELLA TYPHIMURIUM, Strain/Indicator: TA1535, Metabolic Activation: RAT, LIVER, S-9, AROCLOR 1254, Method: PREINCUBATION): inactive; negative; mutagenic call (Test System: AMES SALMONELLA TYPHIMURIUM, Strain/Indicator: TA1537, Metabolic Activation: HAMSTER, LIVER, S-9, AROCLOR 1254, Method: PREINCUBATION): inactive; negative; mutagenic call (Test System: AMES SALMONELLA TYPHIMURIUM, Strain/Indicator: TA1537, Metabolic Activation: NONE, Method: PREINCUBATION): active; positive; mutagenic call (Test System: AMES SALMONELLA TYPHIMURIUM, Strain/Indicator: TA1537, Metabolic Activation: RAT, LIVER, S-9, AROCLOR 1254, Method: PREINCUBATION): active; positive

Q: COC(=O)[C@@]12Oc3ccc(-c4ccc5c(c4O)C(O)=C4C(=O)C[C@H](C)[C@@H](O)[C@]4(C(=O)OC)O5)c(O)c3C(O)=C1C(=O)C[C@H](C)[C@H]2O was tested. Which mutagenic call [3] did it give?
A: inactive; negative

Q: And the mutagenic call (Test System: AMES SALMONELLA TYPHIMURIUM, Strain/Indicator: TA100, Metabolic Activation: RAT, LIVER, S-9, PHENOBARBITAL, Method: PREINCUBATION)?
A: inactive; negative

Q: Which mutagenic call [4] does the source give for O[C@H]1C=Cc2c(ccc3cccnc23)[C@@H]1O here?
A: active; positive

Q: What does the source list for COc1cc(-c2cc(=O)c3c(O)cc(O)cc3o2)ccc1O?
A: mutagenic call (Test System: Ames Salmonella typhimurium, Strain/Indicator: TA98, Metabolic Activation: None, Method: Standard plate): inactive; negative; mutagenic call (Test System: Ames Salmonella typhimurium, Strain/Indicator: TA98, Metabolic Activation: Rat, Liver, S-9, Aroclor 1254, Method: Standard plate): inactive; negative

Q: How did the mutagenic call [5] turn out when COc1nsc2ccc([N+](=O)[O-])cc12 was run?
A: active; positive

Q: For O=S(=O)(O)c1ccc(N=Nc2cc(S(=O)(=O)O)c3ccccc3c2O)c2ccccc12, which mutagenic call (End Point: IN VITRO CHROMOSOMAL ABERRATIONS, Test System: CHO CELLS, Metabolic Activation: NONE) is on record?
A: inactive; negative

Q: What about the mutagenic call (End Point: IN VITRO CHROMOSOMAL ABERRATIONS, Test System: CHO CELLS, Metabolic Activation: RAT, LIVER, S-9, AROCLOR 1254) of the same molecule?
A: inactive; negative

Q: And the mutagenic call (Test System: Mouse lymphoma, Strain/Indicator: L5178Y (tk+/tk-), Metabolic Activation: None, Method: Suspension/plate)?
A: inactive; negative

Q: What about the mutagenic call (Test System: Mouse lymphoma, Strain/Indicator: L5178Y (tk+/tk-), Metabolic Activation: Rat, Liver, S-9, Aroclor 1254, Method: Suspension/plate) of the same molecule?
A: inactive; negative

Q: What does the source list for Nc1cc2c(O)c(N=Nc3ccc(N=Nc4ccc(S(=O)(=O)O)cc4)c4ccc(S(=O)O)cc34)c(S(=O)(=O)O)cc2cc1S(=O)(=O)O?
A: mutagenic call (Test System: AMES SALMONELLA TYPHIMURIUM, Strain/Indicator: TA98, Metabolic Activation: NONE, Method: STANDARD PLATE): inactive; negative; mutagenic call [6]: inactive; negative; mutagenic call [5]: inactive; negative; mutagenic call [4]: inactive; negative; mutagenic call (Test System: AMES SALMONELLA TYPHIMURIUM, Strain/Indicator: TA1535, Metabolic Activation: NONE, Method: STANDARD PLATE): inactive; negative; mutagenic call (Test System: AMES SALMONELLA TYPHIMURIUM, Strain/Indicator: TA1535, Metabolic Activation: RAT, LIVER, S-9, AROCLOR 1254, Method: STANDARD PLATE): inactive; negative; mutagenic call (Test System: AMES SALMONELLA TYPHIMURIUM, Strain/Indicator: TA1537, Metabolic Activation: NONE, Method: STANDARD PLATE): inactive; negative; mutagenic call (Test System: AMES SALMONELLA TYPHIMURIUM, Strain/Indicator: TA1537, Metabolic Activation: RAT, LIVER, S-9, AROCLOR 1254, Method: STANDARD PLATE): inactive; negative; mutagenic call (Test System: AMES SALMONELLA TYPHIMURIUM, Strain/Indicator: TA1538, Metabolic Activation: NONE, Method: STANDARD PLATE): inactive; negative; mutagenic call (Test System: AMES SALMONELLA TYPHIMURIUM, Strain/Indicator: TA1538, Metabolic Activation: RAT, LIVER, S-9, AROCLOR 1254, Method: STANDARD PLATE): inactive; negative

Q: Nc1cccc(-c2ccccc2)c1 was tested. Which mutagenic call [1] did it give?
A: inactive; negative

Q: What about the mutagenic call (Test System: AMES SALMONELLA TYPHIMURIUM, Strain/Indicator: TA98, Metabolic Activation: RAT LIVER S-9, AROCLOR 1254, Method: PREINCUBATION) of the same molecule?
A: inactive; negative

Q: And the mutagenic call (Test System: AMES SALMONELLA TYPHIMURIUM, Strain/Indicator: TA98, Metabolic Activation: RAT, LIVER, S-9, AROCLOR 1254 (4%), Method: STANDARD PLATE)?
A: active; positive

Q: And the mutagenic call [6]?
A: inactive; negative

Q: And the mutagenic call [3]?
A: inactive; negative

Q: What about the mutagenic call (Test System: AMES SALMONELLA TYPHIMURIUM, Strain/Indicator: TA100, Metabolic Activation: RAT LIVER S-9, AROCLOR 1254, Method: PREINCUBATION) of the same molecule?
A: inactive; negative

Q: And the mutagenic call [4]?
A: inactive; negative

Q: Which results are given for O=C(Nc1ccc([N+](=O)[O-])cc1Cl)c1cc(Cl)ccc1O?
A: mutagenic call (Test System: AMES SALMONELLA TYPHIMURIUM, Strain/Indicator: TA98(NR), Metabolic Activation: RAT, LIVER, S-9, AROCLOR 1254, Method: STANDARD PLATE): inactive; negative; mutagenic call [1]: inactive; negative; mutagenic call [2]: active; positive; mutagenic call (Test System: AMES SALMONELLA TYPHIMURIUM, Strain/Indicator: TA1538, Metabolic Activation: NONE, Method: PREINCUBATION): inactive; negative; mutagenic call (Test System: AMES SALMONELLA TYPHIMURIUM, Strain/Indicator: TA1538, Metabolic Activation: RAT, LIVER, S-9, AROCLOR 1254, Method: PREINCUBATION): active; positive; mutagenic call (Test System: AMES SALMONELLA TYPHIMURIUM, Strain/Indicator: TA1978, Metabolic Activation: NONE, Method: PREINCUBATION): inactive; negative; mutagenic call (Test System: AMES SALMONELLA TYPHIMURIUM, Strain/Indicator: TA1978, Metabolic Activation: RAT, LIVER, S-9, AROCLOR 1254, Method: PREINCUBATION): inactive; negative; mutagenic call (Test System: AMES SALMONELLA TYPHIMURIUM, Strain/Indicator: UTH8413, Metabolic Activation: NONE, Method: PREINCUBATION): inactive; negative; mutagenic call (Test System: AMES SALMONELLA TYPHIMURIUM, Strain/Indicator: UTH8413, Metabolic Activation: RAT, LIVER, S-9, AROCLOR 1254, Method: PREINCUBATION): inactive; negative; mutagenic call (Test System: AMES SALMONELLA TYPHIMURIUM, Strain/Indicator: YG1020, Metabolic Activation: RAT, LIVER, S-9, AROCLOR 1254, Method: STANDARD PLATE): active; positive; mutagenic call (Test System: AMES SALMONELLA TYPHIMURIUM, Strain/Indicator: YG1021, Metabolic Activation: RAT,LIVER, S-9, AROCLOR 1254, Method: STANDARD PLATE): active; positive; mutagenic call (Test System: AMES SALMONELLA TYPHIMURIUM, Strain/Indicator: YG1024, Metabolic Activation: RAT, LIVER, S-9, AROCLOR 1254, Method: STANDARD PLATE): active; positive

Reference: PubChem BioAssay AID1259407 (Chemical Carcinogenesis Research Information System (CCRIS), 2018)
